Experiments:
[1] = system: IICR (IP3 induced calcium release) in CHO cells; assay: Assay of IICR (IP3 induced calcium release)-inhibiting action; format: cell-based, Chinese hamster; conditions: Cricetulus griseus, CHO, CHO cells, 10 μM ATP, read-out: IICR level (percentage of inhibition); for inhibition at 10 µM: test compound 10 μmol; for inhibition at 30 µM: test compound 30 μmol; for inhibition at 100 µM: test compound 100 μmol
Outline: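 Inhibition (%) of the intracellular calcium increase triggered by 10 μM ATP, measured in CHO cells in BSS with calcium. Compound given 1 min after the buffer exchange and 2 min before ATP; values reported per compound concentration.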

[2] = system: SOCE (store operated calcium entry) in CHO cells; assay: Assay of SOCE (store operated calcium entry)-inhibiting action; format: cell-based, Chinese hamster; conditions: Cricetulus griseus, CHO, CHO cells, thapsigargin, read-out: SOCE level (percentage of inhibition); for inhibition at 10 µM: test compound 10 μmol; for inhibition at 30 µM: test compound 30 μmol; for inhibition at 100 µM: test compound 100 μmol
Outline: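 CHO cells in calcium-free BSS received compound, then 1 μM thapsigargin 2 min later to deplete stores; after 9 min, 2 mM calcium chloride (final) added. Percent inhibition of the rise in intracellular calcium determined at various compound concentrations.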

SMILES | inhibition at 10 µM [1] [%] | inhibition at 30 µM [1] [%] | inhibition at 100 µM [1] [%] | inhibition at 10 µM [2] [%] | inhibition at 30 µM [2] [%] | inhibition at 100 µM [2] [%]
CC(C)N(CCC(=O)c1ccccn1)Cc1ccccc1 [Example 73, 2-(N-isopropylbenzyl)aminoethyl-2-pyridylketone] | 70 | 100 | 90 | 0 | 0 | 10
CC(C)(C)N(CCC(=O)c1ccc(Br)cc1)Cc1ccccc1 [Example 324, 2-(N-benzyl-t-butyl)aminoethyl-4-bromophenylketone] | 50 | 40 | 40 | 20 | 20 | 20
O=C(CCN(CCO)Cc1ccccc1)c1cccnc1 [Example 177, 2-(N-2-hydroxyethylbenzyl)aminoethyl-3-pyridylketone] | 0 | 0 | 50 | 0 | 0 | 0
O=C(CCN1CCCCC1)c1ccccn1 [Example 95, 2-piperidinoethyl-2-pyridylketone] | 0 | 10 | 10 | 0 | 0 | 0
CC(C)N(CCC(=O)c1ccc(Br)s1)Cc1ccccc1 [Example 292, 2-(N-isopropylbenzyl)aminoethyl-5-bromo-2-thienylketone] | 50 | 80 | 90 | 0 | 20 | 40
C=CC(=O)c1ccco1 [Example 171, 2-furyl vinylketone] | 0 | 0 | 0 | 0 | 10 | 30
CC(C)N(CCO)CCC(=O)c1ccsc1 [Example 56, 2-(hydroxyethylisopropyl)aminoethyl-3-thiophenylketone] | 0 | 0 | 50 | 0 | 0 | 0
CCCCN(CCO)CCC(=O)c1ccc(Br)s1 [Example 293, 2-(N-2-hydroxyethylbutyl)aminoethyl-5-bromo-2-thienylketone] | 80 | 50 | 90 | 0 | 0 | 10
CC(C)(C)N(CCC(=O)c1nccs1)Cc1ccccc1 [Example 256, 2-(N-benzyl-t-butyl)aminoethyl-2-thiazolylketone] | 50 | 90 | 80 | 0 | 0 | 10
NCCCNCCCCNCCC(=O)c1ccc2ccccc2c1 [Example 119, 2-(N-aminopropylaminobutyl)aminoethyl-2-naphthylketone] | 0 | 0 | 0 | 0 | 0 | 0
O=C(CCNCC(O)c1ccccc1)c1ccc(Br)s1 (stereo not drawn) [Example 349, 2-(2-hydroxy-2-phenylethyl)aminoethyl-5-bromo-2-thienylketone] | 20 | 0 | 50 | 46 | 0 | 0
CC(C)N(CCC(=O)c1cccc2ccccc12)Cc1ccccc1 [Example 82, 1-(N-benzylisopropyl)aminoethyl-1-naphthylketone] | 50 | 70 | 100 | 0 | 0 | 20
CC(C)(C)N(CCC(=O)c1cccnc1)Cc1ccccc1 [Example 231, 2-(N-benzyl-t-butyl)aminoethyl-3-pyridylketone] | 20 | 90 | 100 | 0 | 0 | 0
COc1ccc(C(=O)CCN(C)Cc2ccccc2)cc1 [Example 76, 2-(N-methylbenzyl)aminoethyl-4-methoxyphenylketone] | 0 | 10 | 30 | 0 | 10 | 20
O=C(CCN1CCC(CCO)CC1)c1ccc(Br)s1 [Example 361, 2-(4-hydroxyethylpiperadino)ethyl-5-bromo-2-thienylketone] | 22 | 0 | 19 | 22 | 2 | 19
O=C(CCN(CCO)Cc1ccccc1)c1ccc(I)s1 [Example 379, 2-(N-2-hydroxyethyl-N-benzyl)aminoethyl-5-iodo-2-thienylketone] | 50 | 24 | 46 | 20 | 40 | 50
CC(C)N(CCO)CCC(=O)c1ccc(Br)s1 [Example 329, 2-(N-hydroxyethylisopropyl)aminoethyl-5-bromo-2-thienylketone] | 0 | 10 | 50 | 20 | 20 | 10
NCCSSCCN(CCC(=O)c1ccc(I)cc1)CCC(=O)c1ccc(I)cc1 [Example 388, N,N-bis(4-iodobenzoylethyl)cystamine] | 0 | 0 | 70 | 20 | 40 | 50
CCCCN(CCO)CCC(=O)c1cccs1 [Example 247, 2-(N-butyl-2-hydroxyethyl)aminoethyl-2-thiophenylketone] | 10 | 0 | 0 | 0 | 0 | 0
CC(CN(Cc1ccccc1)C(C)C)C(=O)c1ccccc1F (stereo not drawn) [Example 182, 1-methyl-2-(N-benzylisopropyl)aminoethyl-2-fluorophenylketone] | 0 | 0 | 50 | 10 | 50 | 80
Cc1ccc(C(=O)CCN(Cc2ccccc2)C(C)C)cc1 [Example 65, 2-(N-isopropylbenzyl)aminoethyl-4-methylphenylketone] | 30 | 10 | 30 | 0 | 0 | 30
CN(CCC(=O)c1cccnc1)Cc1ccccc1 [Example 248, 2-(N-benzylmethyl)aminoethyl-3-pyridylketone] | 0 | 10 | 80 | 0 | 0 | 0
